The values that follow come from patent US20260098053A1, “COMPOSITIONS AND METHODS FOR TREATING CNS DISORDERS” (SAGE THERAPEUTICS, INC., priority 2019, published 2026).

The target in the first experiment is [35S]-TBPS binding, rat brain cortical membranes. Description: Steroid inhibition of [35S]-TBPS binding. The note with it: Table 4, 3 nM [35S]-TBPS, in the presence of 5 mM GABA, read-out: TBPS IC50. The protocol:
[35S]-t-Butylbicyclophosphorothionate (TBPS) binding assays using rat brain cortical membranes in the presence of 5 mM GABA has been described (Gee et al, J. Pharmacol. Exp. Ther. 1987, 241, 346-353; Hawkinson et al, Mol. Pharmacol. 1994, 46, 977-985; Lewin, A. H et al., Mol. Pharmacol. 1989, 35, 189-194).
Briefly, cortices are rapidly removed following decapitation of carbon dioxide-anesthetized Sprague-Dawley rats (200-250 g). The cortices are homogenized in 10 volumes of ice-cold 0.32 M sucrose using a glass/teflon homogenizer and centrifuged at 1500×g for 10 min at 4° C. The resultant supernatants are centrifuged at 10,000×g for 20 min at 4° C. to obtain the P2 pellets. The P2 pellets are resuspended in 200 mM NaCl/50 mM Na—K phosphate pH 7.4 buffer and centrifuged at 10,000×g for 10 min at 4° C. This washing procedure is repeated twice and the pellets are resuspended in 10 volumes of buffer. Aliquots ([…]) of the membrane suspensions are incubated with 3 nM [^35S]-TBPS and […] aliquots of test drug dissolved in dimethyl sulfoxide (DMSO) (final 0.5%) in the presence of 5 mM GABA. The incubation is brought to a final volume of 1.0 mL with buffer. Nonspecific binding is determined in the presence of […] and ranged from 15 to 25%. Following a 90 min incubation at room temp, the assays are terminated by filtration through glass fiber filters (Schleicher and Schuell No. 32) using a cell harvester (Brandel) and rinsed three times with ice-cold buffer. Filter bound radioactivity is measured by liquid scintillation spectrometry. Non-linear curve fitting of the overall data for each drug averaged for each concentration is done using Prism (GraphPad). […] The concentration of test compound producing 50% inhibition (IC50) of specific binding and the maximal extent of inhibition (Imax) are determined for the individual experiments with the same model used for the overall data and then the means±SEM.s of the individual experiments are calculated.
Various compounds are or can be screened to determine their potential as modulators of [^35S]-TBPS binding in vitro. These assays are or can be performed in accordance with the above
For the compound `C[C@]1(O)CCC2=CC[C@H]3[C@@H]4CCC[C@H](C(=O)Cn5cc(C#N)cn5)[C@@]4(C)CC[C@@H]3[C@@]2(C)CC1` [Example 58, 1-(2-((1S,4aS,4bS,9S,11aR,11bS,13aS)-9-hydroxy-9,11a,13a-trimethyl-2,3,4,4a,4b,5,7,8,9,10,11,11a,11b,12,13,13a-hexadecahydro-1H-cyclohepta[a]phenanthren-1-yl)-2-oxoethyl)-1H-pyrazole-4-carbonitrile], the IC50 is less than 100 nM.

Regarding `CC[C@]1(O)CC[C@H]2CC[C@@H]3[C@H](CC[C@]4(C)[C@@H](C(=O)Cn5cc(C#N)cn5)CCC[C@@H]34)[C@H]2CC1` [Example 50], the concentration for half-maximal inhibition (IC50) is 100 to 1000 nM.

With `CC[C@]12CC[C@H]3[C@@H](CC[C@@H]4C[C@](C)(O)CCC[C@@]43C)[C@@H]1CC[C@@H]2C(=O)Cn1cc(C#N)cn1` [Example 30, 1-(2-((1S,3aS,3bR,5aR,7R,10aS,10bS,12aS)-12a-ethyl-7-hydroxy-7,10a-dimethyloctadecahydrocyclohepta[a]cyclopenta[f]naphthalen-1-yl)-2-oxoethyl)-1H-pyrazole-4-carbonitrile], the IC50 was less than 100 nM.

As for `C[C@]1(O)CC[C@@H]2CC[C@@H]3[C@H](CC[C@]4(C)[C@@H](C(=O)Cn5cc(C#N)cn5)CCC[C@@H]34)[C@@]2(C)CC1` [Example 44, 1-(2-((1S,4aS,4bR,6aS,9S,11aS,11bS,13aS)-9-hydroxy-9,11a,13a-trimethyloctadecahydro-1H-cyclohepta[a]phenanthren-1-yl)-2-oxoethyl)-1H-pyrazole-4-carbonitrile], the IC50 was 100 to 1000 nM.

For `CC[C@@]1(O)CCC[C@H]2[C@H](CC[C@@H]3[C@@H]2CC[C@]2(C)[C@H](C(C)=O)CCC[C@@H]32)C1` [Example 36, 1-((1R,4aS,4bR,6aR,8R,11aS,11bR,13aS)-8-ethyl-8-hydroxy-13a-methyloctadecahydro-1H-cyclohepta[a]phenanthren-1-yl)ethenone], the IC50 was more than 1000 nM.

As for `C[C@]1(O)CC[C@H]2CC[C@@H]3[C@H](CC[C@]4(C)[C@H](C(=O)Cn5cc(C#N)cn5)CCC[C@@H]34)[C@H]2CC1` [Example 3], the IC50 is more than 1000 nM.

With `CC[C@]12CC[C@H]3[C@@H](CC[C@@H]4C[C@](C)(O)CC[C@@H]43)[C@@H]1CCC[C@@H]2C(=O)Cn1cc(C#N)cn1` [Example 28, 1-(2-((1S,4aS,4bR,6aR,8R,10aS,10bR,12aS)-12a-ethyl-8-hydroxy-8-methyloctadecahydrochrysen-1-yl)-2-oxoethyl)-1H-pyrazole-4-carbonitrile], the IC50 was less than 100 nM.

With `CC[C@]1(O)CC[C@H]2CC[C@@H]3[C@H](CC[C@]4(C)[C@H](C(C)=O)CCC[C@@H]34)[C@H]2CC1` [Example 47, 1-((1R,4aS,4bR,6aR,9S,11aS,11bR,13aS)-9-ethyl-9-hydroxy-13a-methyloctadecahydro-1H-cyclohepta[a]phenanthren-1-yl)ethanone], the IC50 is more than 1000 nM.

On to `CC[C@]12CC[C@@](C)(O)C[C@H]1CC[C@H]1[C@@H]3CCCC[C@H](C(C)=O)[C@@]3(C)CC[C@@H]12` [Example 22], for which the IC50 is less than 100 nM.

The same experiment, now with this note: Table 5, 3 nM [35S]-TBPS, in the presence of 5 mM GABA, read-out: TBPS IC50.
Turning to `CC(=O)[C@@H]1CCC[C@H]2[C@@H]3CC[C@@H]4C[C@](C)(O)CC[C@@H]4[C@H]3CC[C@@H]21` [Example 75, 1-((1R,4aS,4bR,6aR,8R,10aS,10bR,12aS)-8-hydroxy-8-methyloctadecahydrochrysen-1-yl)-ethanone], the concentration for half-maximal inhibition (IC50) is more than 1000 nM.

`C[C@@]1(O)CC[C@H]2[C@H](CC[C@@H]3[C@@H]2CC[C@H]2[C@H]3CC[C@H]2C(=O)Cn2cc(C#N)cn2)C1` (stereo in doubt) [Example 71]: the IC50 is more than 1000 nM.

With `CC[C@]12CC[C@@](C)(O)C[C@H]1CC[C@H]1[C@@H]3CC[C@H](C(=O)Cn4nnc(C)n4)[C@H]3CC[C@@H]12` [Example 83, 1-((3R,5R,8S,9S,10S,13S,14S,17S)-10-ethyl-3-hydroxy-3-methylhexadecahydro-1H-cyclopenta[a]phenanthren-17-yl)-2-(5-methyl-2H-tetrazol-2-yl)ethanone], the IC50 is less than 100 nM.

In the case of `Cc1nnn(CC(=O)[C@H]2CC[C@H]3[C@@H]4CC[C@H]5C[C@](C)(O)CC[C@@H]5[C@H]4CC[C@@H]32)n1` [Example 73, 1-((3R,5S,8R,9R,10S,13S,14S,17S)-3-hydroxy-3-methylhexadecahydro-1H-cyclopenta[a]phenanthren-17-yl)-2-(5-methyl-2H-tetrazol-2-yl)ethanone], the IC50 is more than 1000 nM.

On to `C[C@@]1(O)CC[C@H]2[C@H](CC[C@@H]3[C@@H]2CC[C@H]2[C@H]3CCC[C@@H]2C(=O)Cn2cc(C#N)cn2)C1` [Example 78, 1-(2-((1S,4aS,4bR,6aR,8R,10aS,10bR,12aS)-8-hydroxy-8-methyloctadecahydrochrysen-1-yl)-2-oxoethyl)-1H-pyrazole-4-carbonitrile], for which the IC50 is less than 100 nM.

The same experiment, now with this note: Table 6, 3 nM [35S]-TBPS, in the presence of 5 mM GABA, read-out: IC50.
For `CC[C@]12CC[C@H]3[C@@H](CC[C@@H]4C[C@](C)(O)CC[C@@]43C3CC3)[C@@H]1CC[C@@H]2C(C)=O` [Example 88, 1-((3R,5R,8S,9S,10R,13S,14S,17S)-10-cyclopropyl-13-ethyl-3-hydroxy-3-methylhexadecahydro-1H-cyclopenta[a]phenanthren-17-yl)ethanone], the IC50 is less than 100 nM.

`CC[C@]12CC[C@H]3[C@@H](CC[C@@H]4C[C@](C)(O)CC[C@@]43C3CC3)[C@@H]1CC[C@@H]2C(=O)Cn1nnc(C)n1` [Example 91, 1-((3R,5R,8S,9S,10R,13S,14S,17S)-10-cyclopropyl-13-ethyl-3-hydroxy-3-methylhexadecahydro-1H-cyclopenta[a]phenanthren-17-yl)-2-(5-methyl-2H-tetrazol-2-yl)ethanone]: the IC50 was less than 100 nM.

With `CC[C@]12CC[C@H]3[C@@H](CC[C@@H]4C[C@](C)(O)CC[C@@]43C3CC3)[C@@H]1CC[C@@H]2C(=O)Cn1nnnc1C` [Example 92, 1-((3R,5R,8S,9S,10R,13S,14S,17S)-10-cyclopropyl-13-ethyl-3-hydroxy-3-methylhexadecahydro-1H-cyclopenta[a]phenanthren-17-yl)-2-(5-methyl-1H-tetrazol-1-yl)ethanone], the IC50 was less than 100 nM.

Regarding `CC[C@]12CC[C@H]3[C@@H](CC[C@@H]4C[C@](C)(O)CC[C@@]43C3CC3)[C@@H]1CC[C@@H]2C(=O)Cn1ccc(C#N)n1` [Example 90, 1-(2-((3R,5R,8S,9S,10R,13S,14S,17S)-10-cyclopropyl-13-ethyl-3-hydroxy-3-methylhexadecahydro-1H-cyclopenta[a]phenanthren-17-yl)-2-oxoethyl)-1H-pyrazole-3-carbonitrile], the IC50 is less than 100 nM.

Regarding `C[C@@]1(O)CC[C@@]2(C3CC3)[C@H](CC[C@H]3[C@@H]4CCC[C@@H](C(=O)Cn5cc(C#N)cn5)[C@@]4(C)CC[C@@H]32)C1` [Example 86, 1-(2-((1R,4aS,4bS,6aR,8R,10aR,10bS,12aS)-10a-cyclopropyl-8-hydroxy-8,12a-dimethyloctadecahydrochrysen-1-yl)-2-oxoethyl)-1H-pyrazole-4-carbonitrile], the IC50 is more than 1000 nM.

In general, IC50 refers to the concentration needed to halve the response being measured.
